Test results: US5747463A, “Malonate derivatives of glycolipids as cell adhesion inhibitors” (Bristol-Myers Squibb Company, priority 1996, dated 1998)
pIC50: −log10 of the molar value.

What was measured:
[1] = test system: platelet: HL-60 cell adhesion; experiment: HL-60 Platelet Cell Adhesion Assay; assay type: cell-based; conditions: 0.5 h; thrombin-activated human platelets: HL-60 5:1, 30 minutes at room temperature; read-out: P-selectin HL-60 Platelets IC50
Protocol: HL-60 cells, obtained from American Type Culture Collection, were cultured in RPMI 1640 medium (GIBCO) supplemented with 20% fetal calf serum (Sigma) and 50 μg/ml gentamicin (GIBCO). Cells in log phase growth were harvested, washed and resuspended in Tyrodes buffer containing 5 mM HEPES and 0.2% bovine serum albumin and were fixed with 1% buffered formalin.
Blood from normal human donors was anticoagulated with citrate, layered over 1-Step Platelets (Accurate Chemical Co.) and centrifuged at 350 g for 20 minutes at room temperature. The platelet band was collected, diluted in 2 volumes of Tyrode's Buffer with 5 mM HEPES, 10 mM EDTA, and 0.2% BSA (pH 7.4) (THEB) and centrifuged at 600 g for 10 minutes. The platelet pellet was resuspended in THEB and incubated at room temperature for 1 hour. Calcein-acetoxy methylester (Calcein-Am, Molecular Probes) was added to the platelets at a final concentration of 10 μM and incubated for 10 minutes at 37° C. to label the platelets. Without washing, the platelets were counted on a Coulter counter model ZM, and the concentration was adjusted to 1×10^7 /ml. The platelets were activated with 2 U/ml of human thrombin for 10 minutes in Tyrode's containing 2 mM CaCl2, 5 mM HEPES, and 0.2% BSA (pH 7.4) (THB) at 37° C. and immediately fixed with 1% buffered formalin for 1 to 2 hours at room temperature. A small aliquot of labeled platelets was removed before activation and designated as non-activated.
Both platelets and HL-60 were washed in a ≥25 fold excess volume of Hanks Balanced Salt Solution (HBSS), resuspended in THB and counted. Cell concentrations were adjusted to 2×10^7 /ml for platelets and 4×10^6 /ml for HL-60, this ratio determined to be optimum for platelet: HL-60 cell adhesion. Compounds were incubated with 50 μl of platelets for 30 minutes at room temperature before addition of 50 μl of HL-60. This ratio of 5:1 platelets to HL-60 was incubated for 30 minutes at room temperature before addition of 0.2 ml of THB to increase the volume so the samples could be analyzed on a FACScan cytometer (Becton Dickinson). Non-activated platelets, and activated platelets with 10 mM EDTA were included as controls. Data were collected within a region set for the forward scatter channel corresponding to HL-60 size events.
The percent HL-60 cells which contained bound platelets was determined for each test condition. The inhibition of binding was determined by comparison to standards which were treated with vehicle alone (representing 0% inhibition) and standards whose specific binding had been blocked by the use of EDTA (representing 100% inhibition), by the following formula: [formula] where x=HL-60 cells containing bound platelets in the presence of the compound;
b=HL-60 cells containing bound platelets in the presence of EDTA;
a=HL-60 cells containing bound platelets in the presence of compound vehicle;
z=% inhibition of platelet: HL-60 cell adhesion

rats = experiment: Reverse Passive Arthus Reaction in Rats (RPA); assay type: in vivo, male Sprague Dawley rats; set-up: key to RPA VP % Inhib. (vascular permeability): NS: no significant inhibition at 3 mg; conditions: single dose of 3 mg IV, rat, 4 hours after BSA
Source text: The reverse passive Arthus reaction in rats is a modification of the method by Mulligan et al., as described in J. Clin. Invest, (1991) 88: 1396-1406. This is an experimental model in which the interaction of antigen-antibodycomplexes and complement leads to a severe vasculitis that is associated with edema, induration, erythema and hemorrhage. The interaction between the antigen-antibody complexes and complement leads to a localized influx of neutrophils. These neutrophils release a variety of mediators that are associated with tissue damage and vascular permeability. The localized inflammatory reaction is measured using different techniques i.e., vascular permeability and neutrophil influx which is evaluated both biochemically and microscopically.
Male Sprague Dawley specific pathogen-free rats with jugular vein cannulae (280-320 g, Hill Top Labs, Pennsylvania) are used in these studies. Animals are acclimated for at least 1 day and individually housed in stainless steel cages. The dorsal region of the rats is closely clipped 2 days prior to the experiments and divided into 4 sites on each side of the midline. Prior to all injections the rats are sedated with 0.4 ml per 300 gm rat of ketamine/rompun [1000 mg (10 ml) of ketamine HCl is mixed with 40 mg (2.0 ml) Rompun] administered IP and or inhalation anesthesia with metafane (methoxyflurane).
Bovin Serum Albumin (BSA) and rabbit polyclonal IgG rich in anti-BSA are purchased from Sigma Chemical Co. (St. Louis, Mo.). Radiolabelled ^125 I-BSA (spAct 1-5 μCi/μg) is purchased from Dupont NEN (Boston, Mass.).
Each rat is administered intradermal (ID) injection of (0.4 mg, 0.6 mg and 0.8 mg) anti-BSA in a volume of 100 μl per injection in normal saline. The ID injections are randomized near the mid dorsal region on both sides of the back bone. Immediately after the ID injections of the anti-BSA, the rats are administered intravenous (IV) injections of BSA (10 mg in 1.0 ml) in normal saline containing ^125 I labeled BSA (1 μCi/ml BSA or 5.0 μCi/kg body/wt) for quantification of dermal valscular injury. Anti-inflammatory agents such as inhibitors of adhesion molecules of the present invention are administered IV at a single dose of 3 mg immediately after BSA. Four (4) hours after the IV injection of BSA, the rats are anesthetized with metafane and 2 to 3 ml of blood is withdrawn via the cannula into an anticoagulant containing (EDTA or Heparin) tube and plasma separated and saved for neutrophil and albumin quantitation. The rats are killed and the skin surrounding the injection site (15 mm diameter) is punched out and weighed. The skin sample and a fixed volume of plasma (0.1 to 1.0 ml) is analyzed in a gamma-counter for ^125 I content. Skin samples from the contralateral side are processed and analyzed for myeloperoxidase activity (MPO) as a measure of neutrophil accumulation. As needed, samples are also processed for histological evaluation of the reacted sites.
The calculation of the plasma protein exudation into skin is made by determining the radioactivity in the tissue and relating this to the level of radioactive albumin in the blood at the time of sacrifice. […] [formula]
Percent inhibition of the test compound at 3 mg was determined as follows: [formula] Myeloperoxidase (MPO)
MPO is located in the azurophil granules of polymorphonuclear leukocytes (PMN). Because of its abundance in these cells (5% dry weight), this enzyme is used as a marker for tissue neutrophil content. For tissue MPO content, the method of Bradley, et al., was used as described in J. Invest. Dermatol. (1982) 78: 206-209. Biopsies from each treatment group were placed in plastic tubes (15×100 mm) containing 10 ml of 0.5% hexadecyltrimethylammonium bromide (HTAB) in 0.05M potassium phosphate buffer pH 6.0. The tissue was then homogenized with a Brinkmann Polytron homogenizer (10s). […]

P-selectin = molecular target: T1, P-selectin (Homo sapiens, UniProt P16109); conditions: literature; cited from earlier work
T1 sequence (P16109 42-830): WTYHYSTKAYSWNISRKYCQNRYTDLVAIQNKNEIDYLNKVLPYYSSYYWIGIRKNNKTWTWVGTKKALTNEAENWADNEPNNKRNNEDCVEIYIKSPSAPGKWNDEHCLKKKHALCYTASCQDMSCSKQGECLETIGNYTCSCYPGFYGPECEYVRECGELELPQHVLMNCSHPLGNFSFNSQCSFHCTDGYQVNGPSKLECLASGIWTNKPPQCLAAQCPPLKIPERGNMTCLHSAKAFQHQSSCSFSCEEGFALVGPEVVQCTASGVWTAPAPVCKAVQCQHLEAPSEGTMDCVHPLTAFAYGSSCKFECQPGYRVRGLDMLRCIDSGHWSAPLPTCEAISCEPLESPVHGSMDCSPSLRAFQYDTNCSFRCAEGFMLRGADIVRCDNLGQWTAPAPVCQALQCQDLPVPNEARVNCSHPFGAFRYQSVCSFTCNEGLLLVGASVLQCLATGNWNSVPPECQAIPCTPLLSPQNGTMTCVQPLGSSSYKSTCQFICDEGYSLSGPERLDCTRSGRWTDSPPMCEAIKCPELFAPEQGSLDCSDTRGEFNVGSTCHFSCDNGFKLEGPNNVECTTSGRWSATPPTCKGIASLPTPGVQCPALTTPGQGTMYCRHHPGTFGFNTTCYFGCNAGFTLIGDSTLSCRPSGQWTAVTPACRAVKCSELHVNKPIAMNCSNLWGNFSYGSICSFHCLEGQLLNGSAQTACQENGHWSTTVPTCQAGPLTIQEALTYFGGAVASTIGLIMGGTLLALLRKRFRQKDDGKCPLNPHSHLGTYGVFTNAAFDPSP

pIC50 [1]	Compound	RPA MPO % Inhib. (myeloperoxidase) (rats)	RPA VP % Inhib. (vascular permeability) (rats; printed as symbol)	RPA VP % Inhib. (vascular permeability) (rats)	inhibition of P-selectin mediated adhesion (P-selectin)
4.89	CCCCCCCCCCCCC/C=C/[C@@H](OC(=O)c1ccccc1)[C@H](CO[C@H]1O[C@H](COCCC(C(=O)O)C(=O)O)[C@H](O)[C@H](O)[C@H]1O)NC(=O)CCCCCCCCCCCCCCC [Example 6, (2S,3R,4E)-3-Benzoyloxy-2-hexadecanoylamino-1-[6-O-(3,3-di-carboxyprop-1-yl)-α-D-galactopyranosyloxy]-4-octadecene]	25%	NS	–	–
4.64	CCCCCCCCCCCCC/C=C/[C@@H](OC(=O)c1ccccc1)[C@H](CO[C@H]1O[C@H](CO)[C@H](O)[C@H](OCCCCC(C(=O)O)C(=O)O)[C@H]1O)NC(=O)CCCCCCCCCCCCCCC [Example 12, (2S,3R,4E)-3-Benzoyloxy-2-hexadecanoylamino-1-[3-O-(5,5-di-carboxypent-1-yl)-α-D-galactopyranosyloxy]-4-octadecene]	82%	–	33%	–
4.35	CCCCCCCCCCCCC/C=C/[C@@H](OC(=O)c1ccccc1)[C@H](CO[C@@H]1O[C@H](CO)[C@H](O)[C@H](OCCCCC(C(=O)O)C(=O)O)[C@H]1O)NC(=O)CCCCCCCCCCCCCCC [Example 14, (2S,3R,4E)-3-Benzoyloxy-2-hexadecanoylamino-1-[3-O-(5,5-di-carboxypent-1-yl)-β-D-galactopyranosyloxy]-4-octadecene]	30.9%	–	15.5%	–
5.06	CCCCCCCCCCCCC/C=C/[C@@H](OC(=O)c1ccccc1)[C@H](CO[C@@H]1O[C@H](CO)[C@H](O)[C@H](OC(=O)c2ccccc2)[C@H]1OCCCCC(C(=O)O)C(=O)O)NC(=O)CCCCCCCCCCCCCCC [Example 18, (2S,3R,4E)-3-Benzoyloxy-2-hexadecanoylamino-1-[2-O-(5,5-di-carboxypent-1-yl)-3-O-benzoyl-β-D-galactopyranosyloxy]-4-octadecene]	61.6%	–	4.3%	–
4.29	CCCCCCCCCCCCC/C=C/[C@@H](OC(=O)c1ccccc1)[C@H](CO[C@H]1O[C@H](CO)[C@H](OCCC(C(=O)O)C(=O)O)[C@H](O)[C@H]1O)NC(=O)CCCCCCCCCCCCCCC [Example 24, (2S,3R,4E)-3-Benzoyloxy-2-hexadecanoylamino-1-[4-O-(3,3-di-carboxyprop-1-yl)-α-D-galactopyranosyloxy]-4-octadecene]	35%	–	33.5%	–

The remaining lines, values behind:

Compound	pIC50 [1]	RPA MPO % Inhib. (myeloperoxidase) (rats)	RPA VP % Inhib. (vascular permeability) (rats; printed as symbol)	RPA VP % Inhib. (vascular permeability) (rats)	inhibition of P-selectin mediated adhesion (P-selectin)
dextran sulfate	–	–	–	–	inhibit P-selectin mediated adhesion
fucoidan	–	–	–	–	inhibit P-selectin mediated adhesion
heparin	–	–	–	–	inhibit P-selectin mediated adhesion
